Reference: the supplement of paper PMC5908809

Assays:
[1] = test system: normal NK cells expanded with K562-aAPC; test: drug sensitivity score (DSS) (DSS units); higher = more sensitive; extreme values may be limits of the assay; conditions: 72 h; IL-2 2.5 ng/mL
Procedure: (§1)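 Drug sensitivity and resistance testing on K562-aAPC-expanded normal NK cells: 5 concentrations (10-fold steps over a 10,000-fold range), 72 h at 37 °C, viability by CellTiter-Glo normalised to DMSO and benzethonium chloride controls; DSS from the fitted curve.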

NK-92 (IL-2 2.5 ng/mL) [2] = test: as above; conditions: 72 h
NK-YS (IL-2 2.5 ng/mL) [3] = test: as above; conditions: 72 h
[4] = test system: normal primary NK cells, pool 3 (3 donors) (IL-2 2.5 ng/mL); test: as above; conditions: 72 h
[5] = test system: normal primary NK cells, pool 1 (3 donors), resting (IL-2 0 ng/mL); test: as above; conditions: 72 h
KHYG-1 (IL-2 2.5 ng/mL) [6] = test: as above; conditions: 72 h
[7] = test system: normal primary NK cells, pool 1 (3 donors) (IL-2 2.5 ng/mL); test: as above; conditions: 72 h
[8] = test system: normal primary NK cells, pool 2 (3 donors) (IL-2 2.5 ng/mL); test: as above; conditions: 72 h
SNK-6 (IL-2 2.5 ng/mL) [9] = test: as above; conditions: 72 h
KAI3 (IL-2 2.5 ng/mL) [10] = test: as above; conditions: 72 h
NKL (IL-2 2.5 ng/mL) [11] = test: as above; conditions: 72 h
IMC-1 (IL-2 20 ng/mL) [12] = test: as above; conditions: 72 h
YT (IL-2 2.5 ng/mL) [13] = test: as above; conditions: 72 h
DERL-7 (IL-2 2.5 ng/mL) [14] = test: as above; conditions: 72 h
NK-92 (IL-2 2.5 ng/mL) [15] = test: percent inhibition of viability; higher = more inhibition; conditions: 72 h
NK-YS (IL-2 2.5 ng/mL) [16] = test: as above; conditions: 72 h
[17] = test system: normal primary NK cells, pool 3 (3 donors) (IL-2 2.5 ng/mL); test: as above; conditions: 72 h
[18] = test system: normal primary NK cells, pool 1 (3 donors), resting (IL-2 0 ng/mL); test: as above; conditions: 72 h
KHYG-1 (IL-2 2.5 ng/mL) [19] = test: as above; conditions: 72 h
[20] = test system: normal primary NK cells, pool 1 (3 donors) (IL-2 2.5 ng/mL); test: as above; conditions: 72 h
[21] = test system: normal primary NK cells, pool 2 (3 donors) (IL-2 2.5 ng/mL); test: as above; conditions: 72 h
SNK-6 (IL-2 2.5 ng/mL) [22] = test: as above; conditions: 72 h
KAI3 (IL-2 2.5 ng/mL) [23] = test: as above; conditions: 72 h
NKL (IL-2 2.5 ng/mL) [24] = test: as above; conditions: 72 h
IMC-1 (IL-2 20 ng/mL) [25] = test: as above; conditions: 72 h
YT (IL-2 2.5 ng/mL) [26] = test: as above; conditions: 72 h
DERL-7 (IL-2 2.5 ng/mL) [27] = test: as above; conditions: 72 h
[28] = test system: normal NK cells expanded with K562-aAPC; test: as above; conditions: 72 h, IL-2 2.5 ng/mL
Procedure: as §1

CCS(=O)(=O)N1CC(CC#N)(n2cc(-c3ncnc4[nH]ccc34)cn2)C1 [Baricitinib] (max concentration tested 2500 nM)
Conditions | drug sensitivity score
DERL-7 (IL-2 2.5 ng/mL) [14] | 19
IMC-1 (IL-2 20 ng/mL) [12] | 7.47
KAI3 (IL-2 2.5 ng/mL) [10] | 24.6
KHYG-1 (IL-2 2.5 ng/mL) [6] | 23.9
NK-92 (IL-2 2.5 ng/mL) [2] | 15.6
NK-YS (IL-2 2.5 ng/mL) [3] | 13.7
NKL (IL-2 2.5 ng/mL) [11] | 26.3
SNK-6 (IL-2 2.5 ng/mL) [9] | 12.8
YT (IL-2 2.5 ng/mL) [13] | 11.6
[1] | 20.2
[4] | 10.4
[5] | 0
[7] | 14.7
[8] | 13.3

percent inhibition of viability [%]
Conditions | 0.25 nM | 2.5 nM | 25 nM | 250 nM | 2500 nM
DERL-7 (IL-2 2.5 ng/mL) [27] | 2.21 | 8.22 | 35.1 | 77.5 | 101
IMC-1 (IL-2 20 ng/mL) [25] | -4.87 | -4.53 | -11.2 | 16.2 | 87.2
KAI3 (IL-2 2.5 ng/mL) [23] | 4.12 | 13.4 | 55.5 | 95.9 | 99.2
KHYG-1 (IL-2 2.5 ng/mL) [19] | -8.72 | 1.48 | 46.9 | 106 | 109
NK-92 (IL-2 2.5 ng/mL) [15] | -7.1 | -0.82 | 23.4 | 68 | 97.8
NK-YS (IL-2 2.5 ng/mL) [16] | -8.38 | -2.38 | 20.7 | 60.4 | 74.6
NKL (IL-2 2.5 ng/mL) [24] | 6.63 | 24.6 | 64.2 | 84.6 | 103
SNK-6 (IL-2 2.5 ng/mL) [22] | -16.6 | -24.9 | 5.7 | 64.8 | 68.9
YT (IL-2 2.5 ng/mL) [26] | -5.41 | -0.41 | 7.96 | 54.3 | 86.4
[17] | 2.14 | -2.13 | 9.5 | 48.8 | 70.4
[18] | 0.1 | 4.62 | 4.85 | 2.89 | 12.1
[20] | -7.54 | 2.7 | 26.4 | 61.7 | 74.2
[21] | -1.68 | 0.38 | 17.6 | 60.4 | 68.1
[28] | 0.8 | 2.05 | 31 | 89.9 | 99.7
